Entries after “also recorded” stand apart in the source; their conditions may differ.

This note sets out measurements from US11851445B2, “Compounds and uses thereof” (Foghorn Therapeutics Inc., priority 2020, dated 2023).

One assay deals with T1, BRD9 (Homo sapiens, UniProt Q9H8M2).
T1 sequence (Q9H8M2 1-597): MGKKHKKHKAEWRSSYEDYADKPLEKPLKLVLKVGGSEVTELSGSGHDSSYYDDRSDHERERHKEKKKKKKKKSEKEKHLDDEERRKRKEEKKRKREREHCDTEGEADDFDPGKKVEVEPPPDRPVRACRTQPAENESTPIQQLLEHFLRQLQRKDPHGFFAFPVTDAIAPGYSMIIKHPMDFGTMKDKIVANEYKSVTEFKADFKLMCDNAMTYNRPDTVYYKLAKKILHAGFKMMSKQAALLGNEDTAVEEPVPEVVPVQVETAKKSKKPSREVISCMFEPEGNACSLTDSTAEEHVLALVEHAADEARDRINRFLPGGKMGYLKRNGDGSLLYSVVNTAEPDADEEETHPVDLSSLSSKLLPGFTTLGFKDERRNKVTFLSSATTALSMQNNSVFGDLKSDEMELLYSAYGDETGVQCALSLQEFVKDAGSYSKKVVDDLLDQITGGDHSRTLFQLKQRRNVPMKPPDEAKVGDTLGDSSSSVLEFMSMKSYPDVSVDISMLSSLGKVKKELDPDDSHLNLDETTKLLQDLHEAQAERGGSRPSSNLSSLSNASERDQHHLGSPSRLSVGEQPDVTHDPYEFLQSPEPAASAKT
The experiment in a line: BRD9 degradation in synovial sarcoma tumor in vivo, western blot (Example 12). Details: degradation endogenous BRD9 protein in two synovial sarcoma cell lines; endogenous in cells; host or cells: SYO1 (SYO-1) synovial sarcoma cells. The note with it: 1 mg/kg, i.p., 4 weeks; tumors 8, 72 and 168 hours post last dose; FIG. 15. The method, then:
Method: Mice were treated with D1, 1 mg/kg, i.p. for 4 weeks. Mice were then euthanized, and tumors were collected at 8 hours, 72 hours, and 168 hours post last dose. Tumors were lysed with 1× RIPA lysis buffer (Boston BioProducts, BP-115D) with protease and phosphatase protein inhibitor (Roche Applied Science #04906837001 & 05892791001). Equal amounts of lysate (30 μg) were loaded in 4-12% Bis-Tris Midi Protein Gels in 1×MOPS buffer; samples ran at 120 V for 120 minutes. Protein was transferred to membrane with TransBlot at 250 mA for 150 minutes, and then membranes were blocked with Odyssey blocking buffer for 1 hour at room temperature. Membranes were hybridized overnight in cold room with primary antibodies. Images acquired using Li-COR imaging system (Li-COR Biotechnology, Lincoln, Nebr.).
In general terms: Immunoblotting shows a protein as a band on a membrane.

Assay [1] concerns SYO-1 human biphasic synovial sarcoma tumor. The experiment in a line: SYO-1 xenograft tumor growth in NOD SCID mice. The conditions noted are these: 1 mg/kg, i.p., daily, 3 weeks; FIG. 14. In kind it is in vivo. As to the method: Method: NOD SCID mice (Beijing Anikeeper Biotech, Beijing) were inoculated subcutaneously on the right flank with the single cell suspension of SYO-1 human biphasic synovial sarcoma tumor cells (5×106) in 100 μL Dulbecco's Modified Eagle Medium (DMEM) with 10% fetal bovine serum (FBS). The mice were randomized into either control group [10% dimethyl sulfoxide (DMSO), 40% polyethylene glycol (PEG400) and 50% water], or treatment group D1 when the mean tumor size reached about 117 mm^3. Mice were dosed daily through intraperitoneal (i.p.) route over the course of 3 weeks. All dose volumes were adjusted by body weights in terms of mg/kg.

In assay [2] the test system is SYO1 cells. In words: Apoptosis assay, Annexin V-FITC. Format: cell-based, human. The note with it: 8 days; compared to DMSO controls. The method, then: (§1) Procedure: SYO1 cells were treated for 8 or 13 days with DMSO, a BRD9 degrader (Compound 1) at 200 nM or 1 μM, or an E3 ligase binder (lenalidomide) at 200 nM. Compounds were refreshed every 5 days. Cell cycle analysis was performed using the Click-iT™ Plus EdU Flow Cytometry Assay (Invitrogen). The apoptosis assay was performed using the Annexin V-FITC Apoptosis Detection Kit (Sigma A9210). Assays were performed according to the manufacturer's protocol.

The test system of assay [3] is SYO1 cells. The experiment in a line: Cell cycle analysis, Click-iT Plus EdU flow cytometry. The note with it: 200 nM or 1 μM, 8 or 13 days; compared to DMSO and lenalidomide. Format: cell-based, human. The method, then: as §1
In general terms: A flow cytometer gives signals particle by particle.

Assay [4] concerns synovial sarcoma cell lines (SYO1, Yamato, HS-SY-II, and ASKA). In words: Growth of synovial sarcoma cell lines (Example 2: confluency, crystal violet, colonies). The conditions noted are these: FIGS. 4, 5, 6. In kind it is cell-based. As to the method:
(§2) Cells were treated with DMSO or the BRD9 degrader, Compound 1, at indicated concentrations, and proliferation was monitored from day 7 to day 14 by measuring confluency over time using an IncuCyte live cell analysis system (FIG. 4). Growth medium and compounds were refreshed every 3-4 days.
(§3) Cells were seeded into 12-well plates and treated with DMSO, 1 μM BRD9 inhibitor, Compound 2 (also known as BI-7273, see Martin et al, J Med Chem. 59(10):4462-4475 (2016); see structure of compound 2 below), or 1 μM BRD9 degrader, Compound 1.
(§4) The number of cells was optimized for each cell line. Growth medium and compounds were refreshed every 3-5 days. SYO1, Yamato, A549, 293T and HS-SY-II cells were fixed and stained at day 11. ASKA cells were fixed and stained at day 23. Staining was done by incubation with crystal violet solution (0.5 g Crystal Violet, 27 ml 37% Formaldehyde, 100 mL 10×PBS, 10 mL Methanol, 863 dH20 to 1 L) for 30 min followed by 3× washes with water and drying the plates for at least 24 h at room temperature. Subsequently plates were scanned on an Odyssey CLx Imaging system (FIG. 5).
(§5) Cells were seeded into 96-well ultra-low cluster plate (Costar, #7007) in 200 μL complete media and treated at day 2 with DMSO, Staurosporin, or BRD9 degrader, Compound 1, at indicated doses (FIG. 2C). Media and compounds were changed every 5 d and cell colonies were imaged at day 14.

The subject of assay [5] is synovial sarcoma cell lines (SYO1, HS-SY-II, and ASKA). In words: Growth of synovial sarcoma cell lines, crystal violet, day 14 (Example 3). Format: cell-based. The method, then:
(§6) Procedure: Cells were seeded into 6-well or 12-well plates and were treated daily with a BRD9 degrader (Compound 1), a bromo-domain BRD9 binder (Compound 2), E3 ligase binder (lenalidomide), DMSO, or staurosporin (positive control for cell killing), at indicated concentrations. The number of cells was optimized for each cell line. Growth media was refreshed every 5 days. By day 14, medium was removed, cells were washed with PBS, and stained using 500 μL of 0.005% (w/v) crystal violet solution in 25% (v/v) methanol for at least 1 hour at room temperature. Subsequently plates were scanned on an Odyssey CLx Imaging system.

Assay [6] deals with non-synovial control cancer cell lines (RD, HCT116, and Calu6). In words: Growth of non-synovial control cancer cell lines, crystal violet, day 14 (Example 3). The note with it: FIG. 8. In kind it is cell-based. The method, then: as §6
The subject of assay [7] is non-synovial control cancer cell lines (293T, A549, G401). In words: Growth of non-synovial control cancer cell lines (Example 2). In kind it is cell-based. The conditions noted are these: FIGS. 4, 5, 6. The method, then: as §2, §3, §4, §5

As to `COc1cc(-c2cn(C)c(=O)c3cnc(N4CCC4)cc23)cc(OC)c1CN1CCC(CN2CCC3(CC2)CN(c2ccc4c(c2)C(=O)N(C2CCC(=O)NC2=O)C4)C3)CC1` (racemic) [Compound D1, 3-[6-(7-[[1-([4-[6-(azetidin-1-yl)-2-methyl-1-oxo-2,7-naphthyridin-4-yl]-2,6-dimethoxyphenyl]methyl)piperidin-4-yl]methyl]-2,7-diazaspiro[3.5]nonan-2-yl)-1-oxo-3H-isoindol-2-yl]piperidine-2,6-dione], the “BRD9 level in tumor” value on BRD9 is “complete degradation of BRD9 target up to 168 hours after dose; also recorded: BRD9 inhibition”. The tumor growth entry in assay [1] is “tumor growth inhibition”.

As for `COc1cc(-c2cn(C)c(=O)c3cnccc23)cc(OC)c1CN(C)CC(=O)NCCOCCOCCNc1cccc2c1C(=O)N(C1CCC(=O)NC1=O)C2=O` (stereo not drawn) [Compound 1, dBRD9], the “numbers of early- and late-apoptotic cells” value in the assay on SYO1 cells [2] was “increased numbers of early- and late-apoptotic cells”. The “numbers of cells in the S-phase of the cell cycle” value in the assay on SYO1 cells [3] was “reduced numbers of cells in the S-phase”. Also, the “growth of the cells” value in assay [4] is “inhibition of the growth of the cells”; in assay [5] (SYO1, HS-SY-II, ASKA, day 14, FIG. 7) it was “inhibition of the growth of the cells”; in assay [6] it was “did not result in inhibition of the growth”; in assay [7] it was “does not result in inhibition of the growth”. Further, in assay [5] (all synovial cell lines), the “growth inhibition compared with the other treatments” value is “most significant growth inhibition”.
